Source: US10507247B2, “Optical probes for matrix metalloproteinases” (The University Court of the University of Edinburgh, priority 2015, dated 2019)
Primed or numbered codes have the meaning given here. Where no end group is shown, it is not given here. [ ]: non-standard residue; d: D form. The star is where a group is joined. 5FAM = O=C1OC2(c3ccc(O)cc3Oc3cc(O)ccc32)c2ccc(C(=O)*)cc21; MethylRed = CN(C)c1ccc(/N=N/c2ccccc2C(=O)*)cc1; PEG2′ = PEG spacer unit (glycol linker); Nle = CCCC[C@H](N)C(=O)O; Ahx = NCCCCCC(=O)O; βAla = NCCC(=O)O

Assays:
MMP = test: Activation of probe variants by MMP in vitro; format: biochemical
Description: The selectivity of the probes, together with further probes AMF-14b, SVC-030 (both defined in Table 6 below) and SVC-068 (defined in Table 4 below), to detect MMP over elastase, another proteinase relevant in lung disease, was tested and the results for all probes are shown in FIG. 2.
Variants consisting of D-amino acids at the recognition site sequence with or without blocking PEG units were also synthesised and assessed.
(§1) The enzyme assays were run in a 384-well format on a PCR opaque microplate (Thermo Scientific). All dilutions and reactions were prepared in MMP buffer (50 mM Tris, 10 mM CaCl2, 0.15M NaCl, 0.05% Brij-35, pH 7). Proteolytic activity was determined by calculating the fold change in fluorescence over background signal provided by the corresponding dilution of the probe and/or inhibitors with exogenous enzymes using a-multiwell plate fluorimeter (Synergy H1 Hybrid Reader, BioTek instruments Ltd) at excitation/emission 485/528 nm. Recombinant human MMPs (Catalytic domain MMP-1, -2, -3, -7, -8, -9, -10, -11, -12, -13 (Enzo Life Sciences) and Full-length MMP-2, -9, -12 and -13 (Merck/Millipore)) were used at 30 nM. Pro-MMP-13 (R & D Systems) was activated by incubating with 1 mM 4-aminophenylmercunc acetate (APMA) for 2 hrs at 37° C. Human neutrophil elastase (Elastase Product Company, used at 2.5 ug/ml), neutrophil lysate (lysed human neutrophils), and recombinant human Thrombin (Sigma-Aldrich, used at 5 U/ml), Plasmin (Sigma-Aldrich, used at 30 nM) and Factor Xa (Sigma-Aldrich, used at 0.5 μM) were used to identify the lead molecular probe sequences. For inhibition assays, enzyme and inhibitor were pre-incubated for 1 hr at 37° C. before the addition of molecular probe.

MMP-9 = test: Enzyme assay, fold change in probe fluorescence over background with MMP-9; format: biochemical, human; details: for MMP-9 (83 kDa), fold change in fluorescent signal: different probe scaffolds (monomer, dendrimers); for MMP-9 (39.0 kDa), fold change in fluorescence over background: FRET monomers, recombinant human catalytic domain MMP at 30 nM, ex/em 485/528 nm
Description: A library of probes (listed in Table 2 below) containing FAM (Carboxyfluorescein) as the fluorophore (donor) and MethylRed (MR) as the quencher (acceptor) and a variety of peptide sequences was synthesized by manual standard solid-phase Fmoc peptide chemistry (described below).
(§2) Enzyme specificity of the lead probes with exogenous enzymes was tested using a multiwell plate fluorimeter at excitation/emission 485/528 nm (Table 3). Recombinant human catalytic domain MMPs-1, -2, -3, -7, -8, -9, -10, -11, -12, -13 were used at 30 nM. Cleavage site for each sequence is indicated in italics.
(§3) The different compounds were also evaluated according to the fold change in fluorescent signal in presence of MMP-9 and MMP-13, and the results are shown in Table 7. From this comparison, the FRET dendrimers comprising SEQ ID NO.1 and SEQ ID NO.7 (AMF-106 and SVC-186) together with the 9Dendrimer comprising SEQ ID NO.7 (SVC-196) were chosen for further evaluation. These dendrimers are shown in FIG. 7, probe A (AMF-106), probe B (SVC-186) and probe C (SVC-196).
as §1

MMP-13 [1] = test: Enzyme assay, fold change in probe fluorescence over background with MMP-13; format: biochemical, human; details: different probe scaffolds (monomer, dendrimers); MMP-13 52 kDa
Description: as §2, §3, §1

[2] = system: MMPs-1, -2, -3, -7, -8, -9, -10, -11, -12, -13, Thrombin, Plasmin and Factor Xa; test: Enzyme specificity of the FRET branched probes with exogenous enzymes (FIG. 8); format: biochemical, human; details: probe 10 μM
Description: FIG. 8. Enzyme specificity of the FRET branched probes A, B and C. Data represents the average fold change in fluorescence over background signal provided by probe (10 μM) with exogenous enzymes using a multiwell plate fluorimeter (Synergy H1 Hybrid Reader, BioTek instruments Ltd) at excitation/emission 485/528 nm. Recombinant human catalytic domain MMPs-1, -2, -3, -7, -8, -9, -10, -11, -12, -13 were used at 30 nM. Recombinant human Thrombin, Plasmin and Factor Xa were used at 5 U/ml, 30 nM, 0.5 μM, respectively.
Three selected probes (A: AMF-106, B: SVC-186 B, and C: SVC-196) were evaluated in vitro in a new experiment including other members of the MMP family (MMPs-1, -2, -3, -7, -8, -9, -10, -11, -12, -13) as well as Thrombin, Plasmin and Factor Xa, and the results are shown in FIG. 8. […] The plasmin cleavage site was identified and attempts to make a resistant version replacing with D-aa in these positions were unsuccessful.
as §1

MMP-2 = test: Enzyme assay, fold change in probe fluorescence over background with MMP-2; format: biochemical; details: FRET monomers; recombinant human catalytic domain MMP at 30 nM; ex/em 485/528 nm
Chain of MMP-2 (P08253 with tags, fused parts or gaps DEL222-396 limits assumed): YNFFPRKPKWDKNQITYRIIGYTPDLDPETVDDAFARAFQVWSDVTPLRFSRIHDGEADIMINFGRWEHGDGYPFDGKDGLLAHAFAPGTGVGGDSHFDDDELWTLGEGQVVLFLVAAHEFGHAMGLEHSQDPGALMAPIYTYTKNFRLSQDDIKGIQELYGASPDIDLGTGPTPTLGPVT
Description: as §2, §1

MMP-12 = molecular target: T1, MMP-12 (Homo sapiens, UniProt P39900); test: Enzyme assay, fold change in probe fluorescence over background with MMP-12; format: biochemical; details: FRET monomers; recombinant human catalytic domain MMP at 30 nM; ex/em 485/528 nm
T1 construct: Recombinant human catalytic domain MMPs-1, -2, -3, -7, -8, -9, -10, -11, -12, -13 were used at 30 nM; purchased Enzo Life Sciences
T1 sequence (P39900 106-263 limits assumed): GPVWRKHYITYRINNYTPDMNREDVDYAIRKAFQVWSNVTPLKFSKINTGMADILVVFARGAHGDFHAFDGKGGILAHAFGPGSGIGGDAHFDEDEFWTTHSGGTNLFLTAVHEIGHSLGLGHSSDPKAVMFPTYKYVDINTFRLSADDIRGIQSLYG
Description: as §2, §1

Thrombin = molecular target: T2, Thrombin (Homo sapiens, UniProt P00734); test: Enzyme assay, fold change in probe fluorescence with Thrombin; format: biochemical; details: recombinant human Thrombin 5 U/ml; ex/em 485/528 nm
T2 construct: purchased Sigma-Aldrich
Description: as §2, §1

MMP-13 [3] = molecular target: MMP-13 (Homo sapiens, UniProt P45452); test: Enzyme assay, fold change in probe fluorescence over background with MMP-13; format: biochemical; design: purchased Enzo Life Sciences (catalytic domain); Merck/Millipore (full-length); details: FRET monomers; recombinant human catalytic domain MMP at 30 nM; ex/em 485/528 nm
Description: as §2, §3, §1

Row | MMP-9 (83 kDa), fold change in fluorescent signal (MMP-9) | MMP-13 (52 kDa), fold change in fluorescent signal (MMP-13 [1]) | signal-to-noise (fold change above the background) [2] | selectivity for MMP-2/9 ([2]; MMPs 30 nM, Thrombin 5 U/ml, Plasmin 30 nM, Factor Xa 0.5 μM) | MMP-9 (39.0 kDa), fold change in fluorescence over background (MMP-9) | MMP-2 (20.3 kDa), fold change in fluorescence over background (MMP-2) | MMP-12 (20.3 kDa), fold change in fluorescence over background (MMP-12) | Inflammatory mediators: Thrombin, fold change in fluorescence over background (Thrombin) | MMP-13 (20.4 kDa), fold change in fluorescence over background (MMP-13 [3]) | Substance | intensity upon activation by MMP (MMP) | recognition of the cleavable sequence by MMP (MMP; FIG. 2)
1 | 1.06 | 1.47 |  |  |  |  |  |  |  | FAM-Ahx-G-P-K-G-L-K-G-3 probe elements ({5FAM-Ahx}-GPKGLKG; also: three probe elements on a scaffold) [TWB140] |  | 
2 | 2.92 | 7.11 |  |  |  |  |  |  |  | FAM-K(FAM)-PEG2-PFGNleKβA-PEG2-k-PEG2-k-3 probe elements [SVC-189] |  | 
3 |  |  |  |  | 4.22 | 2.10 | 1.54 | 1.37 | 9.33 | FAM-PEG2-G-P-K-G-I-K-G-K(MR)-NH2 ({5FAM-PEG2′}-GPKGIKGK(MethylRed)-NH2) [SVC-26] |  | 
4 |  |  |  |  | 3.50 | 1.98 | 2.34 | 1.31 | 9.30 | FAM-PEG2-G-P-K-G-L-K-G-K(MR)-NH2 [SVC-24] |  | 
5 |  |  |  |  | 4.53 | 2.70 | 1.46 | 1.48 | 11.75 | FAM-PEG2-G-P-K-G-Nle-K-G-K(MR)-NH2 [SVC-27] |  | 
6 |  |  |  |  | 7.53 | 4.01 | 3.05 | 0.97 | 12.93 | FAM-PEG2-P-Cha-G-M-H-G-K(MR)-NH2 [SVC-21] |  | 
7 |  |  |  |  | 8.21 | 4.24 | 2.61 | 1.02 | 14.88 | FAM-PEG2-P-Cha-G-M-K-G-K(MR)-NH2 [SVC-22] |  | 
8 | 1.41 | 1.80 |  |  |  |  |  |  |  | FAM-PEG2-PFGNleKβA-PEG2-k-PEG2-k-3 probe elements [SVC-188] |  | 

The next lines start with the substance.

Row | Substance | MMP-9 (83 kDa), fold change in fluorescent signal (MMP-9) | MMP-13 (52 kDa), fold change in fluorescent signal (MMP-13 [1]) | signal-to-noise (fold change above the background) [2] | selectivity for MMP-2/9 ([2]; MMPs 30 nM, Thrombin 5 U/ml, Plasmin 30 nM, Factor Xa 0.5 μM) | MMP-9 (39.0 kDa), fold change in fluorescence over background (MMP-9) | MMP-2 (20.3 kDa), fold change in fluorescence over background (MMP-2) | MMP-12 (20.3 kDa), fold change in fluorescence over background (MMP-12) | Inflammatory mediators: Thrombin, fold change in fluorescence over background (Thrombin) | MMP-13 (20.4 kDa), fold change in fluorescence over background (MMP-13 [3]) | intensity upon activation by MMP (MMP) | recognition of the cleavable sequence by MMP (MMP; FIG. 2)
9 | Ac-PEG2-PFGNleKβA-K[K(FAM)2]-PEG2-k-PEG2-k-3 probe elements [SVC-01-198] |  |  |  |  |  |  |  |  |  | much lower intensity | 
10 | FAM-K(FAM)-PEG2-PFGNleKβA-K(FAM)-PEG2-k-PEG2-k-3 probe elements ({5FAM-K(FAM)-PEG2′}-PFG[Nle]K[βAla]-{K(FAM)-PEG2′-code k-PEG2′-code k}; also: three probe elements on a scaffold) [SVC-196] | 3.33 | 11.80 | lower signal-to-noise | poor selectivity |  |  |  |  |  |  | 
11 | FAM-PEG2-P-Cha-G-M-F-G-K(MR)-NH2 [SVC-15] |  |  |  |  | 5.89 | 3.27 | 2.45 | 0.94 | 11.75 |  | 
12 | FAM-PEG2-P-Cha-G-M-K-βA-K(MR)-NH2 [SVC-20] |  |  |  |  | 9.61 | 5.22 | 3.21 | 1.00 | 15.9 |  | 
13 | FAM-PEG2-P-Cha-G-M-W-G-K(MR)-NH2 [SVC-17] |  |  |  |  | 5.07 | 2.59 | 2.59 | 1.05 | 6.5 |  | 
14 | FAM-PEG2-P-Cha-G-M-Y(Me)-G-K(MR)-NH2 [SVC-18] |  |  |  |  | 4.94 | 2.54 | 2.15 | 0.97 | 10.04 |  | 
15 | FAM-PEG2-P-Cha-G-M-Y-G-K(MR)-NH2 [SVC-19] |  |  |  |  | 6.90 | 4.07 | 2.87 | 1.04 | 11.26 |  | 
16 | FAM-PEG2-P-F-G-I-K-βA-K(MR)-NH2 [AMF-24] |  |  |  |  | 2.29 | 1.59 | 1.65 | 0.96 | 5.05 |  | 
17 | FAM-PEG2-P-F-G-L-K-βA-K(MR)-NH2 [AMF-23] |  |  |  |  | 2.50 | 1.87 | 3.03 | 0.89 | 6.41 |  | 
18 | FAM-PEG2-P-F-G-M(S = O)-K-βA-K(MR)-NH2 [SVC-068] |  |  |  |  |  |  |  |  |  |  | not recognised by MMP
19 | FAM-PEG2-P-F-G-M-K-βA-K(MR)-NH2 [SVC-16] |  |  |  |  | 5.21 | 3.11 | 1.88 | 0.99 | 13.57 |  | 
20 | FAM-PEG2-P-F-G-Nle-K-βA-K(MR)-K-K-PEG2-PEG2-NH2 [AMF-92] | 4.75 | 19.30 |  |  |  |  |  |  |  |  | 
21 | FAM-PEG2-P-F-G-Nle-K-βA-K(MR)-NH2 [AMF-25] |  |  |  |  | 2.02 | 1.88 | 1.53 | 0.96 | 5.27 |  | 
22 | MR-K(Ac)-PEG2-GPKGLKG-K(FAM)-PEG2-k-PEG2-k-PEG2-k-NH2 [AMF-111] | 3.66 | 10.57 |  |  |  |  |  |  |  |  | 
